Measurements reported in patent US12692221B2 (priority 2024, dated 2026).
“Also recorded” adds a separate entry of the source.

Columns and labels:
Na^+ channel (site 2) = conditions: Na+ channel (site 2) (antagonist radioligand); footnote: Sodium Channel Site2 (Non-selective) Rat Ion Channel Batrachotoxin Mass Spectr. Binding
5-HT2A [1] = biological target: T1, 5-HT2A (Homo sapiens, UniProt P28223); assay: IP-One HTRF IP-1 accumulation functional assay, 5-HT2A-expressing HEK293; type: cell-based; set-up: host or cells: HEK293
Method: Methods (5-HT2A and 5-HT2C IP-One Functional Activity Assays): Intracellular accumulation of IP-1 was measured using an IP-One HTRF assay kit (Cat. #62IPAPEJ, Cisbio) at WuXi AppTec Co. Ltd. (Hong Kong) Discovery Biology Unit according to their standard protocols. Briefly, the reference compounds and screening compounds were 3.16-fold serially diluted in 100% DMSO for 10 points using Bravo. 70 nL of compounds were added to the assay plate using Echo555. Added 14 μL/7500 cells/well of 5-HT2A-expressing HEK293 or 5-HT2C-expressing HEK293 to the assay plate and incubate for 60 min at 37° C. Added 3 μL of IP-1 d2 Reagent working solution and 3 μL of IP-1 Tb Cryptate Antibody working solution to all wells. The plates were incubated for 1 hour at room temperature and read for fluorescence at 620 nm and 665 nm on an EnVision Multimode Plate Reader (PerkinElmer). The ratio of the acceptor and donor emission signals (665/620) were calculated for each individual well and substituted into the standard curve to obtain the log concentration of IP level. After converting to the antilog base IP-1, the average background control signal was subtracted from each well and values were normalized to the maximal response of 5-HT at 3 μM (100%). % MAX was calculated by taking the average normalized maximal response for each compound at the highest concentration tested. The data were analyzed using the four-parameter nonlinear regression curve-fitting function in GraphPad Prism 5 (GraphPad Software, San Diego, CA) to generate potency (EC50) values. The represented plots show normalized IP-1 values versus compound concentrations; the corresponding numerical data are parameter estimates for the concentration-response curve using the four-parameter nonlinear regression curve-fitting function in GraphPad Prism 10.

BZD (central) = assay: Radioligand binding BZD (central) (agonist radioligand), [^3H]flunitrazepam, rat cerebral cortex
M1 (h) = biological target: T2, M1 (h) (Homo sapiens, UniProt P11229); assay: Radioligand binding M1 (h) (antagonist radioligand), [^3H]pirenzepine, CHO cells
T2 construct: expressed in transfected cells; host or cells: CHO cells
T2 sequence (P11229 1-460): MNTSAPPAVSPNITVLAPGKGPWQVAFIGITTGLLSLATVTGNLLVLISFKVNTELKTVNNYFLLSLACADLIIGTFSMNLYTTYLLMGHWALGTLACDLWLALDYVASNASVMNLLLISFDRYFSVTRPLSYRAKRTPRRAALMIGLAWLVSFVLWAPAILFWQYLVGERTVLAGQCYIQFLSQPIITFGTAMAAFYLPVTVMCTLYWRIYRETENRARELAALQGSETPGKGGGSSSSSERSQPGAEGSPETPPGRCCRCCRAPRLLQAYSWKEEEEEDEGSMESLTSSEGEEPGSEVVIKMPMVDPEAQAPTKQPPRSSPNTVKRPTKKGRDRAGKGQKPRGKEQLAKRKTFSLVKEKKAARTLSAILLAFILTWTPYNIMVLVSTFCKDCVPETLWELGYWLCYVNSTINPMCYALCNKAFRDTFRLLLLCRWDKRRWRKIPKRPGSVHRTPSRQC
Method: (§1) Methods—Binding Assays: In vitro binding assays were performed using human recombinant receptors expressed in mammalian cell lines. Receptors were expressed in either HEK-293 or CHO cells depending on the target, and assay conditions (radioligand, concentration, nonspecific competitor, temperature, and incubation time) were optimized for each receptor. All assays were conducted in triplicate, and specific binding was quantified by scintillation counting as the detection method for each listed assay.
(§2) Specific binding was expressed as a percentage of control-specific binding, and percent inhibition was calculated using the formula in Ex. 8 above. Half-maximal inhibitory concentrations (IC50) were determined by non-linear regression analysis of the inhibition curves using the Hill equation (see Ex. 8). Inhibition constants (Ki) were calculated using the Cheng-Prusoff equation (see Ex. 8). KD values used in these calculations had been previously established for each receptor under the assay conditions (see Table 6). Data analysis was performed using software developed at Cerep and validated against SigmaPlot 4.0 for Windows.

male C57BL/6J mice = assay: Mouse head-twitch response (HTR) assay, magnetometer; type: in vivo; conditions: i.p.; for HTR (head twitch response), in words: doses up to 30 mpk
D1 (h) = biological target: T3, D1 (h) (Homo sapiens, UniProt P21728); assay: Radioligand binding D1 (h) (antagonist radioligand), [^3H]SCH 23390, CHO cells
T3 construct: expressed in transfected cells; host or cells: CHO cells
Method: as §1, §2

beta2 (h) = biological target: T4, beta2 (h) (Homo sapiens, UniProt P07550); assay: Radioligand binding beta2 (h) (antagonist radioligand), [^3H](−)CGP 12177, CHO cells
T4 construct: expressed in transfected cells; host or cells: CHO cells
Method: as §1, §2

CB2 (h) = biological target: T5, CB2 (h) (Homo sapiens, UniProt P34972); assay: Radioligand binding CB2 (h) (agonist radioligand), [^3H]WIN 55212-2, CHO cells
T5 construct: expressed in transfected cells; host or cells: CHO cells
Method: as §1, §2

V1a (h) = biological target: T6, V1a (h) (Homo sapiens, UniProt P37288); assay: Radioligand binding V1a (h) (agonist radioligand), [^3H]AVP, CHO cells
T6 construct: expressed in transfected cells; host or cells: CHO cells
Method: as §1, §2

A2A (h) = biological target: T7, A2A (h) (Homo sapiens, UniProt P29274); assay: Radioligand binding A2A (h) (agonist radioligand), [^3H]CGS 21680, HEK-293 cells
T7 construct: expressed in transfected cells; host or cells: HEK-293 cells
Method: as §1, §2

Lck kinase (h) = biological target: T8, Lck kinase (h) (Homo sapiens, UniProt P06239); assay: Enzyme assay Lck kinase (h), LANCE; type: biochemical
T8 construct: host or cells: insect cells
Method: Methods—Enzyme and Uptake Assays: In vitro enzyme and uptake assays were conducted by Eurofins Discovery using human recombinant enzymes expressed in various mammalian and insect cell lines. Enzymatic activity was measured using appropriate substrates or tracers under conditions optimized for each target, as detailed in Table 7. Reactions were incubated at room temperature for a defined duration and terminated according to established protocols. The measured components (either enzymatic products or remaining substrate) were quantified using fluorimetry, photometry, scintillation counting, or LANCE technology, depending on the assay. Assay-specific parameters, including substrate identity, cell line source, incubation time, and detection method, are provided in Table 7.
All measurements were performed in technical replicates to ensure reproducibility and data quality.
Results were expressed both as a percentage of control-specific activity and as percent inhibition of control-specific activity. Percent activity was calculated as (measured specific activity/control specific activity)×100, and percent inhibition as 100−[(measured specific activity/control specific activity)×100], based on values obtained in the presence of test compounds. IC50 and EC50 values, along with Hill coefficients (nH), were determined by nonlinear regression analysis of inhibition or concentration-response curves generated from mean replicate values. Hill curve fitting was performed as previously described using software developed at Cerep and validated against SigmaPlot® 4.0 for Windows® (© 1997 by SPSS Inc.).

5-HT2A [2] = biological target: T1, 5-HT2A; assay: Calcium flux agonist assay, 293T cells; type: cell-based; set-up: expressed in transfected cells; host or cells: Human Embryonic Kidney (293T) cells, transient; conditions: for Emax: HEK-293T, calcium flux, 5-HT2A, normalized to maximum 5-HT response

T6 sequence (P37288 whole entry): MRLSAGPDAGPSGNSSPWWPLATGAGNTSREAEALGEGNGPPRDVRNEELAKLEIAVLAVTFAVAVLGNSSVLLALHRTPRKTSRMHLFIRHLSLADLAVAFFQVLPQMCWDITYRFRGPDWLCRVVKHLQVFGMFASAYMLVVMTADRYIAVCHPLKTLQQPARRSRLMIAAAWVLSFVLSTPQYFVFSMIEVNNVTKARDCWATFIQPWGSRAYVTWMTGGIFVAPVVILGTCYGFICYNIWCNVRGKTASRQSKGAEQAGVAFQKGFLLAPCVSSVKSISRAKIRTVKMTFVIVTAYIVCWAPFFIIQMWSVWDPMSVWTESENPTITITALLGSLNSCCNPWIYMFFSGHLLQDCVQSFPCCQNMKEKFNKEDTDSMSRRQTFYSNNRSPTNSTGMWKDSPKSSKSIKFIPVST
T3 sequence (P21728 whole entry): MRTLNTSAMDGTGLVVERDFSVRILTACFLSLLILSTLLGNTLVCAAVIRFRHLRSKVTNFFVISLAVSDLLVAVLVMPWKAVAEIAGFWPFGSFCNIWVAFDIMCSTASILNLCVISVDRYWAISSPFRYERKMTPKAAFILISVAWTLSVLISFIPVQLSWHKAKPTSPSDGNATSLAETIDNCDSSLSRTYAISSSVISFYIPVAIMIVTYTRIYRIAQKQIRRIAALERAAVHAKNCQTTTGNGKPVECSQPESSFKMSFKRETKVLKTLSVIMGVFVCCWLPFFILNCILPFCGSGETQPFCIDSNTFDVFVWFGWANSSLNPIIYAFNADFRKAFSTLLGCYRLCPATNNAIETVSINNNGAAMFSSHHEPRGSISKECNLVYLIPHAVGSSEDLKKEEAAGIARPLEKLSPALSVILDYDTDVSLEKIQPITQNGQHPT
T7 sequence (P29274 whole entry): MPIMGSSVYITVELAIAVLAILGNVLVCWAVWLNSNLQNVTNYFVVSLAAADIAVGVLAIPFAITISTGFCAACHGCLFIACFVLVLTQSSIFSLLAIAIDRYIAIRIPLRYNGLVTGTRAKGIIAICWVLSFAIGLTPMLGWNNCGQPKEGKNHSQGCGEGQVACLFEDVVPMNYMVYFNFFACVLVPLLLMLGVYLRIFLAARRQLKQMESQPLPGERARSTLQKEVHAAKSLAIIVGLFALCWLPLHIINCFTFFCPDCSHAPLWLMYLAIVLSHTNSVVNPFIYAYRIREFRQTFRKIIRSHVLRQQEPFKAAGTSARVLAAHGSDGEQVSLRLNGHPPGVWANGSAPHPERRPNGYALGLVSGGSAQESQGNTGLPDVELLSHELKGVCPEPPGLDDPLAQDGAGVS
T5 sequence (P34972 whole entry): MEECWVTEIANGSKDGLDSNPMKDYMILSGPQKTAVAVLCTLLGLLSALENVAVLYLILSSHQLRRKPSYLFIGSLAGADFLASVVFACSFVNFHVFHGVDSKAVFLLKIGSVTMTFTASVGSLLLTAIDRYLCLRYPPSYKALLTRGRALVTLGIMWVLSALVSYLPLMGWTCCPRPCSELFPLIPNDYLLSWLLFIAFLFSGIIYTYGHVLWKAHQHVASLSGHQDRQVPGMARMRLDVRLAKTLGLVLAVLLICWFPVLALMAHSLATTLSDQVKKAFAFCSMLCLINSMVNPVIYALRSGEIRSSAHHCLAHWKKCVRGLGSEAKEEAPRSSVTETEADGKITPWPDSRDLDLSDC
T8 sequence (P06239 whole entry): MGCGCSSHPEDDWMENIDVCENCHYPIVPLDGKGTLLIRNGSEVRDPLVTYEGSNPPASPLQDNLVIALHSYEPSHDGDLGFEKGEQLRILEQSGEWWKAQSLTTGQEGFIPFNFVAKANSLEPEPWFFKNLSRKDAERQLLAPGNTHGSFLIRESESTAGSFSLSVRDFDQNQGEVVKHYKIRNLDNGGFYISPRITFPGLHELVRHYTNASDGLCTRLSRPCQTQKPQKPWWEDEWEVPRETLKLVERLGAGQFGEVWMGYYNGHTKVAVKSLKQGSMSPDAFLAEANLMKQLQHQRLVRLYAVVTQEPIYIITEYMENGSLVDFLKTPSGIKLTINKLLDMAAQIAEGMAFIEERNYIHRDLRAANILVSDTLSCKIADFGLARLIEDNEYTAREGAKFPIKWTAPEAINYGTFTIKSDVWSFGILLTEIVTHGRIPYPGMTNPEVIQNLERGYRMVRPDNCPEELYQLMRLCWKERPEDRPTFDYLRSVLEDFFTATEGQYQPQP
T4 sequence (P07550 whole entry): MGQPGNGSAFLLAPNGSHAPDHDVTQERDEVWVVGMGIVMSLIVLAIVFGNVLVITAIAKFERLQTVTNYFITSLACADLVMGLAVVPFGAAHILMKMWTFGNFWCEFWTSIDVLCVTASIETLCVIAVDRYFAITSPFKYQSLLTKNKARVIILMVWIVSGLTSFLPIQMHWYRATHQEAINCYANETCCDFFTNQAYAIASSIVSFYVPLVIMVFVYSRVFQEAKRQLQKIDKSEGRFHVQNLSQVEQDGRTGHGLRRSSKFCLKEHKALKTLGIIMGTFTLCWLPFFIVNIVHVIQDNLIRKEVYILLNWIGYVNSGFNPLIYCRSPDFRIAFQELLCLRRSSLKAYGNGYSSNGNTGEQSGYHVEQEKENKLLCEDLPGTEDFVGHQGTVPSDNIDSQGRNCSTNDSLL
T1 sequence (P28223 whole entry, looked up): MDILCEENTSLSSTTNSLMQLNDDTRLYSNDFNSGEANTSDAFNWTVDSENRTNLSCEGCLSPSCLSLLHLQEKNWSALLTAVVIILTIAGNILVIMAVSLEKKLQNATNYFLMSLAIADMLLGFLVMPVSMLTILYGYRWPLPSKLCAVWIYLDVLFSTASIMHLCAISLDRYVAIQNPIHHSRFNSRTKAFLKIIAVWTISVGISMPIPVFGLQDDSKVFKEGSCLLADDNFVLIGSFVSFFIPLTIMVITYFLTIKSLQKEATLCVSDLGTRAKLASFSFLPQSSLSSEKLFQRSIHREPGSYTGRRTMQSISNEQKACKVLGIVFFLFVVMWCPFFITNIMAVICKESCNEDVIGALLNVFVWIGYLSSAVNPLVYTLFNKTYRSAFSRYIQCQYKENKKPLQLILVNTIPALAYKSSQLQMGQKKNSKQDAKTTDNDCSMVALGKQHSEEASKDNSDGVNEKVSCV

COCCc1cc(CCN)c(OC)cc1Br [Compound 2CB-5ME, reference compound]
Mean Percent Inhibition of Control Specific Binding (Na^+ channel (site 2)): 46.9% | EC50 (5-HT2A [1]): 227 nM | Mean Percent Inhibition of Control Specific Binding (BZD (central)): −3.0% | Mean Percent Inhibition of Control Specific Binding (M1 (h)): 55.4% | HTR (head twitch response), in words (male C57BL/6J mice): did not produce statistically significant changes in HTR | Mean Percent Inhibition of Control Specific Binding (D1 (h)): 28.1% | Mean Percent Inhibition of Control Specific Binding (beta2 (h)): 31.8% | Mean Percent Inhibition of Control Specific Binding (CB2 (h)): −22.8% | Mean Percent Inhibition of Control Specific Binding (V1a (h)): 11.2% | Mean Percent Inhibition of Control Specific Binding (A2A (h)): −21.3% | Mean Percent Inhibition of Control Specific Binding (Lck kinase (h)): 23.3%

COCc1cc(CCN)c(OC)cc1CC(C)C [Compound 2CiBu-5MM, 2-[4-isobutyl-2-methoxy-5-(methoxymethyl)phenyl]ethanamine]
Mean Percent Inhibition of Control Specific Binding (Na^+ channel (site 2)): 70.4% | EC50 (5-HT2A [1]): 341 nM | Mean Percent Inhibition of Control Specific Binding (BZD (central)): 6.6% | Mean Percent Inhibition of Control Specific Binding (M1 (h)): 52.6% | ED50 based on HTR counts (male C57BL/6J mice; HTR counts summed over a 30-60 min interval): 5.926 mpk | HTR (head twitch response), in words (male C57BL/6J mice): subtle suppression of HTR during the first 15 min followed by a rebound in HTR counts during the last 30 min segment; also recorded: HTR counts remained near baseline throughout the observation period; also recorded: overall neutral effect compared to vehicle HTR occurrences | Mean Percent Inhibition of Control Specific Binding (D1 (h)): −1.4% | Mean Percent Inhibition of Control Specific Binding (beta2 (h)): 38.3% | Mean Percent Inhibition of Control Specific Binding (CB2 (h)): 17.8% | Mean Percent Inhibition of Control Specific Binding (V1a (h)): 5.3% | Mean Percent Inhibition of Control Specific Binding (A2A (h)): 1.1% | EC50 (5-HT2A [2]): 42.2 nM | Emax (5-HT2A [2]): 111% | Mean Percent Inhibition of Control Specific Binding (Lck kinase (h)): −6.6%

COCc1cc(CCN)c(O)cc1CC(C)C [2CiBu-2OH-5MM, 2-(2-aminoethyl)-5-isobutyl-4-(methoxymethyl)phenol]
Mean Percent Inhibition of Control Specific Binding (Na^+ channel (site 2)): 66% | Mean Percent Inhibition of Control Specific Binding (BZD (central)): 8.3% | Mean Percent Inhibition of Control Specific Binding (M1 (h)): 4.9% | HTR (head twitch response), in words (male C57BL/6J mice): did not produce meaningful HTR across the tested dose range | Mean Percent Inhibition of Control Specific Binding (D1 (h)): 4.0% | Mean Percent Inhibition of Control Specific Binding (beta2 (h)): 42.1% | Mean Percent Inhibition of Control Specific Binding (CB2 (h)): −6.0% | Mean Percent Inhibition of Control Specific Binding (V1a (h)): 4.8% | Mean Percent Inhibition of Control Specific Binding (A2A (h)): 11.0% | EC50 (5-HT2A [2]): 55.9 nM | Emax (5-HT2A [2]): 115% | Mean Percent Inhibition of Control Specific Binding (Lck kinase (h)): 12.8%

COCc1cc(CCN)c(OC)cc1Br [Compound 2CB-5MM, 2-(4-bromo-2-methoxy-5-(methoxymethyl)phenyl)ethan-1-amine]
Mean Percent Inhibition of Control Specific Binding (Na^+ channel (site 2)): 21.6% | EC50 (5-HT2A [1]): 59.1 nM | Mean Percent Inhibition of Control Specific Binding (BZD (central)): −1.8% | Mean Percent Inhibition of Control Specific Binding (M1 (h)): 43.4% | HTR (head twitch response), in words (male C57BL/6J mice): did not elicit a significant HTR at any tested dose | Mean Percent Inhibition of Control Specific Binding (D1 (h)): 21.1% | Mean Percent Inhibition of Control Specific Binding (beta2 (h)): 18.8% | Mean Percent Inhibition of Control Specific Binding (CB2 (h)): −14.9% | Mean Percent Inhibition of Control Specific Binding (V1a (h)): 5.5% | Mean Percent Inhibition of Control Specific Binding (A2A (h)): 12.2% | EC50 (5-HT2A [2]): 0.68 nM | Emax (5-HT2A [2]): 114% | Mean Percent Inhibition of Control Specific Binding (Lck kinase (h)): 5.9%
